Data: US12625150B2, “Treatment of, and differential diagnosis between, ACTH-dependent Cushing's syndrome and ACTH-independent Cushing's syndrome” (Corcept Therapeutics Incorporated, priority 2019, dated 2026)
Several values for one entry are separate records, joined by “and”; a condition that tells them apart may be missing. Equal values may be shown once.

Assays:
[1] = test system: serum ACTH and cortisol levels; test: Serum ACTH and cortisol levels and ACTH:cortisol ratio in Cushing's syndrome patients administered mifepristone; assay type: in vivo, human
[2] = test system: serum ACTH and cortisol levels; test: Serum ACTH and cortisol levels and ACTH:cortisol ratio in Cushing's syndrome patients administered relacorilant; assay type: in vivo, human; details: for change in ACTH:cortisol ratio following treatment: relacorilant 100-400 mg/day, six weeks
Protocol: Cushing's syndrome (CS) patients were examined and serum levels of ACTH and cortisol were measured in blood samples obtained from the patients. The serum ACTH and cortisol levels determined prior to administration of glucocorticoid receptor antagonist (GRA) therapy were used to calculate baseline ACTH:cortisol ratios (basal ACTH:cortisol ratios). […] The patients then received oral glucocorticoid receptor antagonist (GRA) therapy (either mifepristone or relacorilant, typically daily) for at least six weeks. The serum ACTH and cortisol levels determined after these six weeks of GRA therapy were used to calculate after-GRA ACTH:cortisol ratios. Three patients were treated with relacorilant (100 milligrams (mg) per day, titrated up to 400 mg per day, as tolerated; see Table 1). […] The results of these clinical measurements in Cushing's syndrome patients administered relacorilant (100 milligrams (mg) per day, titrated up to 400 mg per day, as tolerated) are presented in the Table 1: […]

SMILES | Basal ACTH ([1]; individual patients with confirmed pituitary CS (ACTH dependent), serum, prior to mifepristone) | Day 14 Serum Cortisol ([1]; individual patients with confirmed pituitary CS, day 14 of oral mifepristone 300 mg/day titrated up to 900 mg/day) | Basal Serum Cortisol ([1]; individual patients with confirmed pituitary CS, prior to mifepristone) | Day 14 ACTH ([1]; individual patients with confirmed pituitary CS, serum, day 14 of oral mifepristone 300 mg/day titrated up to 900 mg/day) | Week 6 Basal ACTH ([1]; individual patients with confirmed pituitary CS, serum, week 6 of oral mifepristone 300 mg/day titrated up to 900 mg/day) | Week 6 Serum Cortisol ([1]; individual patients with confirmed pituitary CS, week 6 of oral mifepristone 300 mg/day titrated up to 900 mg/day) | change in ACTH:cortisol ratio following treatment ([2]; CS patient with pituitary tumor (ACTH-dependent Cushing's syndrome)) | Week 6 Serum Cortisol ([2]; adrenal CS patients (ACTH-independent), after six weeks of oral relacorilant 100 mg/day titrated up to 400 mg/day) | Baseline Serum Cortisol ([2]; adrenal CS patients (ACTH-independent), prior to relacorilant) | Week 6 Serum Cortisol ([2]; pituitary CS patient (ACTH-dependent), after six weeks of oral relacorilant 100 mg/day titrated up to 400 mg/day) | Baseline Serum Cortisol ([2]; pituitary CS patient (ACTH-dependent), prior to relacorilant) | Week 6 ACTH ([2]; pituitary CS patient (ACTH-dependent), serum, after six weeks of oral relacorilant 100 mg/day titrated up to 400 mg/day) | Baseline ACTH ([2]; pituitary CS patient (ACTH-dependent), serum, prior to relacorilant) | Post-Treatment Ratio (ACTH:cortisol) ([2]; pituitary CS patient, ACTH in pg/ml divided by cortisol in μg/dL, after six weeks of oral relacorilant 100-400 mg/day) | Baseline Ratio (ACTH:cortisol) ([2]; pituitary CS patient, ACTH in pg/ml divided by cortisol in μg/dL, prior to relacorilant) | change in ACTH:cortisol ratio following treatment ([2]; two CS patients with adrenal tumors (ACTH-independent Cushing's syndrome))
CC#C[C@]1(O)CC[C@H]2[C@@H]3CCC4=CC(=O)CCC4=C3[C@@H](c3ccc(N(C)C)cc3)C[C@@]21C [mifepristone, 11β-(4-dimethylaminophenyl)-17β-hydroxy-17α-(1-propynyl)-estra-4,9-dien-3-one] | 16 pg/mL and 21 pg/mL and 20 pg/mL and 7 pg/mL and 15 pg/mL and 8 pg/mL | 486 nmol/L and 955 nmol/L and 914 nmol/L and 900 nmol/L and 809 nmol/L and 613 nmol/L | 337 nmol/L and 632 nmol/L and 734 nmol/L and 317 nmol/L and 494 nmol/L and 502 nmol/L | 34 pg/ml (2×) and 53 pg/ml and 21 pg/ml and 30 pg/ml and 22 pg/ml | 57 pg/mL and 52 pg/mL and 65 pg/mL and 24 pg/mL and 49 pg/mL and 20 pg/mL | 679 nmol/L and 999 nmol/L and 1151 nmol/L and 955 nmol/L and 731 nmol/L and 654 nmol/L |  |  |  |  |  |  |  |  |  | 
Cn1cc(S(=O)(=O)N2CCC3=Cc4c(cnn4-c4ccc(F)cc4)C[C@]3(C(=O)c3cc(C(F)(F)F)ccn3)C2)cn1 [relacorilant, (R)-(1-(4-fluorophenyl)-6-((1-methyl-1H-pyrazol-4-yl)sulfonyl)-4,4a,5,6,7,8-hexahydro-1H-pyrazolo[3,4-g]isoquinolin-4a-yl)(4-(trifluoromethyl)pyridin-2-yl)methanone] |  |  |  |  |  |  | increased | 14.9 µg/dL and 17.1 µg/dL | 13.6 µg/dL and 16.2 µg/dL | 28.7 µg/dL | 20.7 µg/dL | 39.8 pg/mL | 23.9 pg/mL | 1.39 | 1.15 | decreased
